The record followed here is patent US6576593B2, “Synergistic herbicidal compositions comprising herbicides from the benzoylcyclohexanedione group for use in maize corps” (Aventis CropScience GmbH, priority 2001, dated 2003).

One test has as its system Avena fatua (AVENA). The test can be described thus: Herbicidal activity of A5, herbicides (B) and their combinations, visual scoring, against AVEFA. Format: in vivo. The procedure:
(§1) The herbicidal efficacy of the active ingredients or active ingredient mixtures was scored visually by comparing the treated plots with untreated control plots. The damage and development of all aerial plant parts was recorded. […] The score figures of in each case 4 plots were averaged. Maize plants were grown in the open on plots of from 5 to 10 m^2 in size on different soils and under various climatic conditions, the natural presence of harmful plants or seeds thereof in the soil being exploited for the experiments. […] The active ingredient or active ingredient combinations were applied post-emergence as WG, WP or EC formulations. After 2 to 8 weeks, the plants were scored visually in comparison with an untreated comparison group. […] Moreover, the herbicidal activities of the compositions according to the invention exceed the expected values calculated using Colby's formula. In contrast, the maize plants were left unharmed or virtually unharmed as a consequence of the treatment. When applying the combinations according to the invention, herbicidal effects are frequently observed on a harmful plant species which exceed the formal total of the effects of the herbicides present when these are applied by themselves. Alternatively, it is observed in some cases that a lower application rate is required for the herbicide combination in order to achieve the same effect on a harmful plant species in comparison with the individual products. […] The biological examples listed in the tables hereinbelow relate to the herbicidal activity of combinations according to the invention of the following herbicides against the harmful plants Ipomea laputifolia (IPOMEA) and Avena fatua (AVENA): […]

For test [1], the system named is Ipomea laputifolia (IPOMEA). Description: Herbicidal activity of A5, herbicides (B) and their combinations, visual scoring, against IPOMEA. Format: in vivo. The procedure: as §1

SMILES strings stand for the structures.

Regarding `N#Cc1cc(Br)c(O)c(Br)c1` [Compound B2.2, bromoxynil], the pest or weed control at 140 g/ha with Avena fatua (AVENA) (Avena fatua, Dosage 140 g ai/ha, read-out: Activity against AVEFA found) was found to be 20%; in test [1] (Dosage 140 g ai/ha, read-out: Activity against IPOMEA found), 25%.

Regarding `COC(=O)c1ccc(I)cc1S(=O)(=O)[N-]C(=O)Nc1nc(C)nc(OC)n1.[Na+]` [Compound B5.7, iodosulfuron-methyl-sodium], the “Activity against AVEFA found” value with Avena fatua (AVENA) (Dosage 1 g ai/ha) is given as 30%. Further, in test [1] (Dosage 1 g ai/ha), the “Activity against IPOMEA found” value amounted to 20%.

Consider `COc1cc(OC)nc(NC(=O)NS(=O)(=O)c2ncccc2C(=O)N(C)C)n1` [Compound B5.9, nicosulfuron], for which the pest or weed control at 15 g/ha in the test on Avena fatua (AVENA) (Avena fatua, Dosage 15 g ai/ha, read-out: Activity against AVEFA found) was found to be 40%; in test [1] (Dosage 15 g ai/ha, read-out: Activity against IPOMEA found) it was 20%.

In the case of `CCC(CC)Nc1c([N+](=O)[O-])cc(C)c(C)c1[N+](=O)[O-]` [Compound B7.1, pendimethalin], the pest or weed control at 840 g/ha with Avena fatua (AVENA) (Avena fatua, Dosage 840 g ai/ha, read-out: Activity against AVEFA found) was 10%; in test [1] (Dosage 840 g ai/ha, read-out: Activity against IPOMEA found), 40%.

Consider `CCNc1nc(Cl)nc(NC(C)C)n1` [Compound B2.1, atrazine], for which the pest or weed control at 540 g/ha with Avena fatua (AVENA) (Avena fatua, Dosage 540 g ai/ha, read-out: Activity against AVEFA found) turned out to be 50%; in test [1] (Dosage 540 g ai/ha, read-out: Activity against IPOMEA found) it was 25%.

Turning to `COc1c(Cl)ccc(Cl)c1C(=O)O` [Compound B4.1, dicamba], the pest or weed control at 80 g/ha in the test on Avena fatua (AVENA) (Avena fatua, Dosage 80 g ai/ha, read-out: Activity against AVEFA found) is 10%; in test [1] (Dosage 80 g ai/ha, read-out: Activity against IPOMEA found), 25%.

Consider `CCc1cccc(C)c1N(C(=O)CCl)C(C)COC` (stereo not drawn) [Compound B1.5, metolachlor], for which the pest or weed control at 960 g/ha came to 20% with Avena fatua (AVENA) (Avena fatua, Dosage 960 g ai/ha, read-out: Activity against AVEFA found) and 13% in test [1] (Dosage 960 g ai/ha, read-out: Activity against IPOMEA found).

Consider `CCc1cnc(C2=NC(C)(C(C)C)C(=O)N2)c(C(=O)O)c1` (stereo not drawn) [Compound B5.6, imazethapyr], for which the pest or weed control at 30 g/ha in the test on Avena fatua (AVENA) (Avena fatua, Dosage 30 g ai/ha, read-out: Activity against AVEFA found) amounted to 10%; in test [1] (Dosage 30 g ai/ha, read-out: Activity against IPOMEA found), 25%.

`CC(C)N(C(=O)COc1nnc(C(F)(F)F)s1)c1ccc(F)cc1` [Compound B1.4, flufenacet]: the pest or weed control at 373 g/ha in the test with Avena fatua (AVENA) (Avena fatua, Dosage 373 g ai/ha, read-out: Activity against AVEFA found) is 50%; in test [1] (Dosage 373 g ai/ha, read-out: Activity against IPOMEA found) it was 25%.
